Numbers after ± are expanded uncertainties.
Test: xn = mol fraction of the nth substance listed
Conditions: Gas, Buoyancy - hydrostatic balance with magnetic suspension - one sinker

[HH] [hydrogen] + C
mass density (260.04 K, 6001 kPa, x2 = 0.9): 46.626 ± 0.054 kg/m3 | mass density (260.04 K, 7001 kPa, x2 = 0.9): 55.622 ± 0.056 kg/m3 | mass density (260.04 K, 7002 kPa, x2 = 0.9499): 59.886 ± 0.06 kg/m3 | mass density (260.04 K, 8003 kPa, x2 = 0.9): 64.951 ± 0.058 kg/m3 | mass density (260.04 K, 8003 kPa, x2 = 0.9499): 70.258 ± 0.062 kg/m3 | mass density (260.04 K, 9004 kPa, x2 = 0.9): 74.538 ± 0.06 kg/m3 | mass density (260.04 K, 9006 kPa, x2 = 0.9499): 81.038 ± 0.064 kg/m3 | mass density (260.04 K, 10006 kPa, x2 = 0.9): 84.334 ± 0.062 kg/m3 | mass density (260.04 K, 10006 kPa, x2 = 0.9499): 92.073 ± 0.067 kg/m3 | mass density (260.04 K, 11008 kPa, x2 = 0.9): 94.232 ± 0.064 kg/m3 | mass density (260.04 K, 11011 kPa, x2 = 0.9499): 103.316 ± 0.068 kg/m3 | mass density (260.04 K, 12013 kPa, x2 = 0.9499): 114.514 ± 0.069 kg/m3 | mass density (260.04 K, 13017 kPa, x2 = 0.9499): 125.55 ± 0.069 kg/m3 | mass density (260.04 K, 14016 kPa, x2 = 0.9499): 136.214 ± 0.069 kg/m3 | mass density (260.04 K, 15018 kPa, x2 = 0.9499): 146.448 ± 0.068 kg/m3 | mass density (260.04 K, 16023 kPa, x2 = 0.9499): 156.169 ± 0.067 kg/m3 | mass density (260.04 K, 17019 kPa, x2 = 0.9499): 165.22 ± 0.066 kg/m3 | mass density (260.04 K, 18026 kPa, x2 = 0.9499): 173.779 ± 0.066 kg/m3 | mass density (260.04 K, 18756 kPa, x2 = 0.9499): 179.616 ± 0.069 kg/m3 | mass density (260.05 K, 4000 kPa, x2 = 0.9): 29.682 ± 0.049 kg/m3 | mass density (260.05 K, 5000 kPa, x2 = 0.9): 37.974 ± 0.051 kg/m3 | mass density (260.05 K, 12009 kPa, x2 = 0.9): 104.112 ± 0.065 kg/m3 | mass density (260.05 K, 13009 kPa, x2 = 0.9): 113.883 ± 0.066 kg/m3 | mass density (260.05 K, 14013 kPa, x2 = 0.9): 123.483 ± 0.066 kg/m3 | mass density (260.05 K, 15017 kPa, x2 = 0.9): 132.774 ± 0.067 kg/m3 | mass density (260.05 K, 16016 kPa, x2 = 0.9): 141.654 ± 0.067 kg/m3 | mass density (260.05 K, 17013 kPa, x2 = 0.9): 150.096 ± 0.068 kg/m3 | mass density (260.05 K, 17614 kPa, x2 = 0.9): 154.98 ± 0.072 kg/m3 | mass density (275 K, 1001 kPa, x2 = 0.4997): 3.964 ± 0.031 kg/m3 | mass density (275 K, 2001 kPa, x2 = 0.4997): 7.947 ± 0.032 kg/m3 | mass density (275 K, 3002 kPa, x2 = 0.4997): 11.95 ± 0.034 kg/m3 | mass density (275 K, 4001 kPa, x2 = 0.4997): 15.957 ± 0.035 kg/m3 | mass density (275 K, 5001 kPa, x2 = 0.4997): 19.969 ± 0.037 kg/m3 | mass density (275 K, 6001 kPa, x2 = 0.4997): 23.987 ± 0.041 kg/m3 | mass density (275 K, 7001 kPa, x2 = 0.4997): 27.997 ± 0.044 kg/m3 | mass density (275 K, 8001 kPa, x2 = 0.4997): 31.996 ± 0.048 kg/m3 | mass density (275 K, 9003 kPa, x2 = 0.4997): 35.989 ± 0.052 kg/m3 | mass density (275 K, 10000 kPa, x2 = 0.4997): 39.943 ± 0.057 kg/m3 | mass density (275 K, 12001 kPa, x2 = 0.4997): 47.79 ± 0.066 kg/m3 | mass density (275 K, 13004 kPa, x2 = 0.4997): 51.668 ± 0.071 kg/m3 | mass density (275.01 K, 999 kPa, x2 = 0.9499): 6.842 ± 0.043 kg/m3 | mass density (275.01 K, 1000 kPa, x2 = 0.9): 6.522 ± 0.041 kg/m3 | mass density (275.01 K, 1999 kPa, x2 = 0.9499): 13.98 ± 0.044 kg/m3 | mass density (275.01 K, 2001 kPa, x2 = 0.9): 13.293 ± 0.043 kg/m3 | mass density (275.01 K, 2997 kPa, x2 = 0.9499): 21.412 ± 0.046 kg/m3 | mass density (275.01 K, 3001 kPa, x2 = 0.9): 20.304 ± 0.044 kg/m3 | mass density (275.01 K, 4001 kPa, x2 = 0.9): 27.568 ± 0.046 kg/m3 | mass density (275.01 K, 4002 kPa, x2 = 0.9499): 29.206 ± 0.048 kg/m3 | mass density (275.01 K, 5002 kPa, x2 = 0.9499): 37.281 ± 0.05 kg/m3
